Results on 17 compounds are retold here after PubChem BioAssay (NCI).

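Values below derive from 48-hour exposures of cells grown in 96-well plates, with endpoints linearly interpolated between the two concentrations bracketing the appropriate inhibition level. GI50 marks 50% less growth. TGI marks complete inhibition of growth.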 Some results are limits rather than exact numbers.

One assay concerns A549 NSCLC. The assay is described as follows: NCI-60 cell line screen, 48 h.
For `Cc1ccccc1S(=O)(=O)OC1NS(=O)(=O)c2ccccc21` (stereo not given), the TGI was > 100 µM.

As for `O=C(Nc1ccc(Cl)cc1)c1cccc(NC2=C(Cl)C(=O)N(Cc3ccccc3)C2=O)c1`, the GI50 was 14.8 µM and the TGI turned out to be 28 µM.

On to `Cc1cc(/C=C/c2ccc3cc(N(C)C)ccc3[n+]2C)c(C)n1-c1ccccc1`, for which the GI50 is 0.182 µM and the TGI stood at 1.02 µM.

With `CC[C@H](Nc1ncnc2nc[nH]c12)c1oc2ccccc2c(=O)c1-c1cccc(F)c1`, the GI50 was 29.2 µM and the TGI was > 100 µM.

As for `COc1cc(NCc2ccc3oc(=O)c(-c4ccccc4)nc3c2)cc(OC)c1OC`, the TGI was > 10 µM.

With `COc1ccc(-c2nnc(COc3ccc(NC(=O)Nc4cc(C(F)(F)F)cc(C(F)(F)F)c4)cc3F)o2)cc1`, the GI50 is 1.58 µM and the TGI was 7.15 µM.

With `COC1=CC(=O)C(C2CC(=O)c3c(O)cc(O)cc3O2)=CC1=O` (stereo not given), the TGI is > 72.6 µM.

For `COc1cc(/C=C/c2cc(O)c(C(C)=O)c(O)c2)cc2c1O[C@]1(C)CC[C@@H](O)C(C)(C)[C@H]1C2`, the GI50 was 8.54 µM and the TGI was > 100 µM.

As to `CC(C)C(C)/C=C\C(C)C1CCC2C3=CC=C4CC(O)CCC4(C)C3CCC21C` (stereo not given), the TGI is > 100 µM.

For another assay, the system named is U251 CNS. The experiment in a line: NCI-60 cell line screen, 48 h.
As to `Fc1cc2[nH]ncc2c2c3c(c(-c4cn[nH]c4)nc12)CCCC3`, the GI50 is 0.55 µM and the TGI amounted to 13.4 µM.

Take `C=C1C(=O)O[C@H]2[C@H]1CC/C(COC(=O)c1c[nH]c3ccccc13)=C\CC[C@@]1(C)O[C@@H]21`: the GI50 is 0.616 µM and the TGI was 1.93 µM.

Consider `CCN1CCN(c2nc(C)cc(N(CCNc3ccnc4cc(Cl)ccc34)Cc3ccc4c(c3)OCO4)n2)CC1`, for which the GI50 was 1.56 µM and the TGI was determined as 3.12 µM.

As to `CCN(CC)c1ccc(-c2cc(-c3cc(OC)c(OC)c(OC)c3)nc(N3CCOCC3)c2C#N)cc1`, the GI50 is 2.48 µM and the TGI is > 100 µM.

As to `O=C(CCc1nnc2sc(-c3ccc(Cl)cc3Cl)nn12)c1nc2ncccc2[nH]1`, the GI50 was 1.92 µM and the TGI was 3.67 µM.

Turning to `NS(=O)(=O)c1cc(Br)c(N=Nc2ccc(O)c3ncccc23)c(Br)c1`, the TGI is > 100 µM.

In the case of `COc1ccc(-c2nnc(COc3ccc(C(=O)/C=C/c4ccco4)cc3)o2)cc1`, the GI50 was 1.62 µM and the TGI was 3.08 µM.

As to `OCc1ccc(-c2ccc(-c3ccc(CO)s3)o2)s1`, the TGI was found to be 23.4 µM.

Consider `Cc1ccccc1S(=O)(=O)OC1NS(=O)(=O)c2ccccc21` (stereo not given), for which the TGI was > 100 µM.

Consider `O=C(Nc1ccc(Cl)cc1)c1cccc(NC2=C(Cl)C(=O)N(Cc3ccccc3)C2=O)c1`, for which the GI50 was 9.92 µM and the TGI is 21.5 µM.

As for `Cc1cc(/C=C/c2ccc3cc(N(C)C)ccc3[n+]2C)c(C)n1-c1ccccc1`, the GI50 is 0.129 µM and the TGI worked out at 1.16 µM.

With `CC[C@H](Nc1ncnc2nc[nH]c12)c1oc2ccccc2c(=O)c1-c1cccc(F)c1`, the GI50 was 32.2 µM and the TGI was > 100 µM.

`COc1cc(NCc2ccc3oc(=O)c(-c4ccccc4)nc3c2)cc(OC)c1OC`: the TGI was > 10 µM.

As for `COc1ccc(-c2nnc(COc3ccc(NC(=O)Nc4cc(C(F)(F)F)cc(C(F)(F)F)c4)cc3F)o2)cc1`, the GI50 is 1.54 µM and the TGI stood at 3.45 µM.

`COC1=CC(=O)C(C2CC(=O)c3c(O)cc(O)cc3O2)=CC1=O` (stereo not given) returned a TGI of 37.1 µM.

As to `COc1cc(/C=C/c2cc(O)c(C(C)=O)c(O)c2)cc2c1O[C@]1(C)CC[C@@H](O)C(C)(C)[C@H]1C2`, the GI50 was 3.71 µM and the TGI was > 100 µM.

As to `CC(C)C(C)/C=C\C(C)C1CCC2C3=CC=C4CC(O)CCC4(C)C3CCC21C` (stereo not given), the TGI is > 47.7 µM.

The test system of the next assay is HT29 colon. The experiment in a line: NCI-60 cell line screen, 48 h.
On to `Fc1cc2[nH]ncc2c2c3c(c(-c4cn[nH]c4)nc12)CCCC3`, for which the GI50 is 1.24 µM and the TGI is > 100 µM.

In the case of `C=C1C(=O)O[C@H]2[C@H]1CC/C(COC(=O)c1c[nH]c3ccccc13)=C\CC[C@@]1(C)O[C@@H]21`, the GI50 was 0.249 µM and the TGI stood at 0.58 µM.

Take `CCN1CCN(c2nc(C)cc(N(CCNc3ccnc4cc(Cl)ccc34)Cc3ccc4c(c3)OCO4)n2)CC1`: the GI50 was 1.83 µM and the TGI turned out to be 4.83 µM.

For `CCN(CC)c1ccc(-c2cc(-c3cc(OC)c(OC)c(OC)c3)nc(N3CCOCC3)c2C#N)cc1`, the GI50 is 0.532 µM and the TGI turned out to be 8.87 µM.

In the case of `O=C(CCc1nnc2sc(-c3ccc(Cl)cc3Cl)nn12)c1nc2ncccc2[nH]1`, the GI50 was 2.93 µM and the TGI was determined as 11.8 µM.

Regarding `NS(=O)(=O)c1cc(Br)c(N=Nc2ccc(O)c3ncccc23)c(Br)c1`, the TGI was > 100 µM.

With `COc1ccc(-c2nnc(COc3ccc(C(=O)/C=C/c4ccco4)cc3)o2)cc1`, the GI50 is 1.91 µM and the TGI amounted to 3.61 µM.

Turning to `OCc1ccc(-c2ccc(-c3ccc(CO)s3)o2)s1`, the TGI was > 95 µM.

Take `Cc1ccccc1S(=O)(=O)OC1NS(=O)(=O)c2ccccc21` (stereo not given): the TGI is > 100 µM.

As to `O=C(Nc1ccc(Cl)cc1)c1cccc(NC2=C(Cl)C(=O)N(Cc3ccccc3)C2=O)c1`, the GI50 was 32.4 µM and the TGI is > 100 µM.

For `Cc1cc(/C=C/c2ccc3cc(N(C)C)ccc3[n+]2C)c(C)n1-c1ccccc1`, the GI50 was 0.133 µM and the TGI turned out to be 2.52 µM.

On to `CC[C@H](Nc1ncnc2nc[nH]c12)c1oc2ccccc2c(=O)c1-c1cccc(F)c1`, for which the GI50 is 28.3 µM and the TGI was > 100 µM.

On to `COc1cc(NCc2ccc3oc(=O)c(-c4ccccc4)nc3c2)cc(OC)c1OC`, for which the TGI is > 10 µM.

In the case of `COc1ccc(-c2nnc(COc3ccc(NC(=O)Nc4cc(C(F)(F)F)cc(C(F)(F)F)c4)cc3F)o2)cc1`, the GI50 was 2.21 µM and the TGI worked out at 4.74 µM.

For `COC1=CC(=O)C(C2CC(=O)c3c(O)cc(O)cc3O2)=CC1=O` (stereo not given), the TGI is > 61.3 µM.

Consider `COc1cc(/C=C/c2cc(O)c(C(C)=O)c(O)c2)cc2c1O[C@]1(C)CC[C@@H](O)C(C)(C)[C@H]1C2`, for which the GI50 is 4.05 µM and the TGI is > 100 µM.

For the compound `CC(C)C(C)/C=C\C(C)C1CCC2C3=CC=C4CC(O)CCC4(C)C3CCC21C` (stereo not given), the TGI is > 55.8 µM.
